# Source: the supplement of paper PMC10307832
# Key:
# Assay in all cases: relative viability (nuclei count vs DMSO), 5 days (fraction); higher = more cells survive
# LOU-NH91 = test system: LOU-NH91
# Method in brief: (§1)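 Each reported value is a median over duplicate plates. It expresses relative viability: treated-well nuclei count divided by vehicle-well nuclei count. Lung cancer cell lines in 1536-well plates were dosed by pin tool a day after seeding, alone with one drug or with a fixed anchor-drug dose plus five library-drug doses (not always all listed) in √10 steps, and nuclei were counted after 5 days.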
# A-427 = test system: A-427
# Method in brief: as §1
# H3255 = test system: H3255
# Method in brief: as §1
# NCI-H2170 = test system: NCI-H2170
# Method in brief: as §1
# ChaGo-K-1 = test system: ChaGo-K-1
# Method in brief: as §1
# PC-3 [JPC-3] = test system: PC-3 [JPC-3]
# Method in brief: as §1
# NCI-H1755 = test system: NCI-H1755
# Method in brief: as §1
# LK-2 = test system: LK-2
# Method in brief: as §1
# HCC-366 = test system: HCC-366
# Method in brief: as §1
# NCI-H1944 = test system: NCI-H1944
# Method in brief: as §1
# SK-MES-1 = test system: SK-MES-1
# Method in brief: as §1
# NCI-H596 = test system: NCI-H596
# Method in brief: as §1
# EKVX = test system: EKVX
# Method in brief: as §1
# NCI-H1734 = test system: NCI-H1734
# Method in brief: as §1
# NCI-H1792 = test system: NCI-H1792
# Method in brief: as §1
# EMC-BAC-2 = test system: EMC-BAC-2
# Method in brief: as §1
# NCI-H441 = test system: NCI-H441
# Method in brief: as §1
# NCI-H23 = test system: NCI-H23
# Method in brief: as §1
# COR-L 105 = test system: COR-L 105
# Method in brief: as §1
# NCI-H1975 = test system: NCI-H1975
# Method in brief: as §1
# NCI-H1666 = test system: NCI-H1666
# Method in brief: as §1
# NCI-H520 = test system: NCI-H520
# Method in brief: as §1
smiles,measurement,setting,value
COc1cc(N2CCC(C(N)=O)CC2)ccc1Nc1nc(N)c(Cl)c(Nc2ccccc2S(=O)(=O)C(C)C)n1 [HG-5-88-01] + CC1(C)CCC(c2ccc(Cl)cc2)=C(CN2CCN(c3ccc(C(=O)NS(=O)(=O)c4ccc(N[C@H](CCN5CCOCC5)CSc5ccccc5)c(S(=O)(=O)C(F)(F)F)c4)cc3)CC2)C1 [Navitoclax] (partner 0.5 µM),relative viability,LOU-NH91; first compound 0.04 µM,0.72
same,relative viability,LOU-NH91; first compound 0.1265 µM,0.693
same,relative viability,LOU-NH91; first compound 0.4 µM,0.605
same,relative viability,LOU-NH91; first compound 1.265 µM,0.378
same,relative viability,LOU-NH91; first compound 4 µM,0.468
same,relative viability,A-427; first compound 0.04 µM,0.97
same,relative viability,A-427; first compound 0.1265 µM,1.04
same,relative viability,A-427; first compound 0.4 µM,0.956
same,relative viability,A-427; first compound 1.265 µM,1.04
same,relative viability,A-427; first compound 4 µM,0.835
same,relative viability,H3255; first compound 0.04 µM,0.506
same,relative viability,H3255; first compound 0.1265 µM,0.467
same,relative viability,H3255; first compound 0.4 µM,0.428
same,relative viability,H3255; first compound 4 µM,0.138
same,relative viability,NCI-H2170; first compound 0.04 µM,0.554
same,relative viability,NCI-H2170; first compound 0.1265 µM,0.574
same,relative viability,NCI-H2170; first compound 0.4 µM,0.674
same,relative viability,NCI-H2170; first compound 1.265 µM,0.311
same,relative viability,NCI-H2170; first compound 4 µM,0.73
same,relative viability,ChaGo-K-1; first compound 0.04 µM,1.05
same,relative viability,ChaGo-K-1; first compound 0.1265 µM,1.09
same,relative viability,ChaGo-K-1; first compound 0.4 µM,0.726
same,relative viability,ChaGo-K-1; first compound 1.265 µM,1.12
same,relative viability,ChaGo-K-1; first compound 4 µM,0.762
same,relative viability,PC-3 [JPC-3]; first compound 0.04 µM,0.837
same,relative viability,PC-3 [JPC-3]; first compound 0.1265 µM,0.83
same,relative viability,PC-3 [JPC-3]; first compound 0.4 µM,0.841
same,relative viability,PC-3 [JPC-3]; first compound 1.265 µM,0.753
same,relative viability,PC-3 [JPC-3]; first compound 4 µM,0.751
same,relative viability,NCI-H1755; first compound 0.1265 µM,0.991
same,relative viability,NCI-H1755; first compound 0.4 µM,1.01
same,relative viability,NCI-H1755; first compound 1.265 µM,1.01
same,relative viability,NCI-H1755; first compound 4 µM,1.01
same,relative viability,LK-2; first compound 0.04 µM,0.872
same,relative viability,LK-2; first compound 0.1265 µM,1.03
same,relative viability,LK-2; first compound 0.4 µM,0.805
same,relative viability,LK-2; first compound 1.265 µM,0.377
same,relative viability,LK-2; first compound 4 µM,0.541
same,relative viability,HCC-366; first compound 0.04 µM,0.952
same,relative viability,HCC-366; first compound 0.1265 µM,1.04
same,relative viability,HCC-366; first compound 0.4 µM,0.79
same,relative viability,HCC-366; first compound 1.265 µM,1.02
same,relative viability,HCC-366; first compound 4 µM,1.29
same,relative viability,NCI-H1944; first compound 0.04 µM,1.03
same,relative viability,NCI-H1944; first compound 0.1265 µM,1.15
same,relative viability,NCI-H1944; first compound 0.4 µM,1.11
same,relative viability,NCI-H1944; first compound 1.265 µM,0.985
same,relative viability,NCI-H1944; first compound 4 µM,1.04
same,relative viability,SK-MES-1; first compound 0.04 µM,1.17
same,relative viability,SK-MES-1; first compound 0.1265 µM,1.29
same,relative viability,SK-MES-1; first compound 0.4 µM,1.2
same,relative viability,SK-MES-1; first compound 1.265 µM,1.21
same,relative viability,SK-MES-1; first compound 4 µM,1.03
same,relative viability,NCI-H596; first compound 0.04 µM,0.943
same,relative viability,NCI-H596; first compound 0.1265 µM,0.98
same,relative viability,NCI-H596; first compound 0.4 µM,1.06
same,relative viability,NCI-H596; first compound 1.265 µM,1.02
same,relative viability,NCI-H596; first compound 4 µM,0.901
same,relative viability,EKVX; first compound 0.04 µM,1.03
same,relative viability,EKVX; first compound 0.1265 µM,0.952
same,relative viability,EKVX; first compound 0.4 µM,0.634
same,relative viability,EKVX; first compound 4 µM,0.839
same,relative viability,NCI-H1734; first compound 0.04 µM,0.771
same,relative viability,NCI-H1734; first compound 0.1265 µM,0.858
same,relative viability,NCI-H1734; first compound 0.4 µM,0.943
same,relative viability,NCI-H1734; first compound 1.265 µM,0.827
same,relative viability,NCI-H1734; first compound 4 µM,0.757
same,relative viability,NCI-H1792; first compound 0.04 µM,0.685
same,relative viability,NCI-H1792; first compound 0.1265 µM,0.614
same,relative viability,NCI-H1792; first compound 0.4 µM,0.578
same,relative viability,NCI-H1792; first compound 1.265 µM,0.685
same,relative viability,NCI-H1792; first compound 4 µM,0.738
same,relative viability,EMC-BAC-2; first compound 0.04 µM,1.11
same,relative viability,EMC-BAC-2; first compound 0.1265 µM,1.23
same,relative viability,EMC-BAC-2; first compound 0.4 µM,1.12
same,relative viability,EMC-BAC-2; first compound 1.265 µM,1.05
same,relative viability,EMC-BAC-2; first compound 4 µM,1.22
same,relative viability,NCI-H441; first compound 0.04 µM,0.661
same,relative viability,NCI-H441; first compound 0.1265 µM,0.675
same,relative viability,NCI-H441; first compound 0.4 µM,0.714
same,relative viability,NCI-H441; first compound 1.265 µM,0.609
same,relative viability,NCI-H441; first compound 4 µM,0.679
same,relative viability,NCI-H23; first compound 0.04 µM,0.945
same,relative viability,NCI-H23; first compound 0.1265 µM,0.932
same,relative viability,NCI-H23; first compound 0.4 µM,0.809
same,relative viability,NCI-H23; first compound 1.265 µM,0.815
same,relative viability,NCI-H23; first compound 4 µM,0.659
same,relative viability,COR-L 105; first compound 0.04 µM,0.644
same,relative viability,COR-L 105; first compound 0.1265 µM,0.833
same,relative viability,COR-L 105; first compound 0.4 µM,0.838
same,relative viability,COR-L 105; first compound 1.265 µM,0.645
same,relative viability,COR-L 105; first compound 4 µM,0.809
same,relative viability,NCI-H1975; first compound 0.04 µM,1.13
same,relative viability,NCI-H1975; first compound 0.1265 µM,1.15
same,relative viability,NCI-H1975; first compound 0.4 µM,1.09
same,relative viability,NCI-H1975; first compound 1.265 µM,0.858
same,relative viability,NCI-H1975; first compound 4 µM,0.352
same,relative viability,NCI-H1666; first compound 0.04 µM,1.14
same,relative viability,NCI-H1666; first compound 0.1265 µM,1.01
same,relative viability,NCI-H1666; first compound 0.4 µM,1.01
same,relative viability,NCI-H1666; first compound 1.265 µM,0.877
same,relative viability,NCI-H1666; first compound 4 µM,0.603
same,relative viability,NCI-H520; first compound 0.04 µM,1.09
same,relative viability,NCI-H520; first compound 0.1265 µM,1.09
same,relative viability,NCI-H520; first compound 0.4 µM,0.761
same,relative viability,NCI-H520; first compound 1.265 µM,1.17
same,relative viability,NCI-H520; first compound 4 µM,1.26
